Laboratory results from article PMC4922569, “Antifibrotic Effects of the Dual CCR2/CCR5 Antagonist Cenicriviroc in Animal Models of Liver and Kidney Fibrosis” (PLoS ONE, 2016).
Where a name gives a salt, the structure may show the parent alone.

What was measured:
[1] = Body and kidney weights and clinical condition, UUO model; type: in vivo; conditions: for Contralateral kidney weight / Final body weight / Obstructed kidney weight: UUO model, average±SEM
Experimental: Male CD-1 mice (n = 51; 7–8 weeks of age; Charles River Laboratories, USA) were allocated to weight-matched treatment groups on Day -1 (1 day prior to either sham [one group] or permanent right UUO surgery [five groups] via aseptic laparotomy). From Days -1 to 4, mice received phosphate-buffered saline (PBS) IP QD, apart from a positive-control group, which received 1D11 (anti-TGF-beta1 antibody) 3 mg/kg IP QD. From Days 0 to 5, mice received vehicle control (sham surgery, UUO-control and UUO+positive-control groups) or CVC 7 mg/kg/day (CVC7), CVC20 or CVC100 PO BID (S1 Table). […] Study endpoints included: body and kidney weights, mRNA expression (TGF-beta, connective tissue growth factor, MCP-1, alpha-SMA, collagen 1a1, fibronectin-1 and collagen 3a1), extracellular matrix protein in renal cortical tissue (hydroxyproline content) and histological analyses. Blood and tissue samples were collected from anesthetized mice 4 hours post-dose on Day 5, prior to sacrifice. A mid-transverse section of the right obstructed kidney was collected for histological analysis.
Body weight (measured before and during treatment) and sacrificed animal body and liver/kidney/spleen weights were recorded.

[2] = test system: CCL2-mediated chemotaxis of activated murine macrophages (F4/80+/CD11b+); assay: Ex vivo CCL2-induced chemotaxis of activated mouse macrophages (Transwell); type: cell-based; conditions: 2 hours
Experimental: Mouse monocyte migration in response to CVC treatment was assessed ex vivo in triplicate. TG was injected intraperitoneally into male C57BL/6 mice (n = 3; 8–10 weeks of age; Jackson Laboratory, USA) and activated macrophages were collected 48 hours later by peritoneal lavage. Chemotaxis was assayed using a Transwell® Chamber (Costar, USA) with a 5 μm-pore size polycarbonate filter, as previously described. Briefly, cells were incubated for 2 hours in the presence of 1 nM CCL2 and/or 1 μM CVC (dissolved in dimethyl sulfoxide with 0.5% acetic acid and diluted 1:1000 with serum-free Roswell Park Memorial Institute-1640 medium and 0.5% bovine serum albumin). Cells were harvested from the lower compartment and analyzed by flow cytometry to enumerate F4/80^+CD11b^+ macrophages using a 3-laser BD FACSCanto™ (BD Biosciences, Canada). Results were analyzed using FlowJo software (Tree Star Inc., USA).
In the peritonitis mouse model, one-way analysis of variance with post-hoc Dunnett’s test was performed, using GraphPad Prism® (GraphPad Software, Inc., USA), on differential cell counts obtained from lavage in treatment groups versus the vehicle-control group. For the ex vivo migration of mouse monocytes, statistical significance was determined by a Student’s t test.

[3] = test system: TAA-induced liver fibrosis; assay: Rat model of thioacetamide (TAA)-induced liver fibrosis; type: in vivo; conditions: for Reduction in liver collagen deposition vs vehicle control: picrosirius red; for Reduction in protein expression of alpha-SMA vs vehicle control / Reduction in protein expression of collagen type 1 vs vehicle control: western blot, not statistically significant
Experimental: The TAA model is commonly used for the evaluation of treatment at various stages of disease, from inflammation to cirrhosis. The protocol was approved by the Mount Sinai IACUC (approval number: LA12-00318) and animals were maintained according to the NIH guidelines. Anesthesia was performed with 1–5% isoflurane through inhalation; surgery was terminal.
Using male Sprague-Dawley rats (n = 72, 10–12 weeks of age; Harlan Laboratories, USA), fibrosis was induced by IP administration of TAA at a dose of 150 mg/kg three times per week for 8 weeks. Rats (n = 4–8/group) received vehicle control, CVC 30 mg/kg/day (CVC30) or CVC100 QD PO during Weeks 0–8 (early intervention), Weeks 4–8 (established fibrosis) or Weeks 8–12 (cirrhosis reversal) and were sacrificed at Weeks 8, 8 or 12, respectively (S1 Table). Study endpoints included: body and liver weights, liver biochemistry (e.g. serum alanine and aspartate aminotransferase [ALT/AST]), extracellular matrix protein expression in liver tissue (collagen type 1 and alpha-SMA), mRNA expression (collagen type 1, alpha-SMA, beta-platelet-derived growth factor-beta receptor, TGF beta-receptor, matrix metalloproteinase 2, tissue inhibitor of metalloproteinases 1 [TIMP1] and 2 [TIMP2]) and liver morphology. For liver-function testing, plasma samples were obtained from blood collected from the vena cava. Livers were sectioned and fixed in 3.7% formalin, embedded in paraffin, cut at […] thickness and stained with hematoxylin and eosin (H&E) for histological examination.
In the TAA model, serum ALT/AST levels were measured using VITROS® 5,1 FS (Ortho Clinical Diagnostics, USA), with plasma diluted with VITROS® 7% bovine serum albumin if needed. In the NASH model, plasma ALT levels were measured by FUJI DRI-CHEM 7000 (Fujifilm, Japan) and plasma CCL2 concentration quantified by the mouse CCL2/JE/MCP-1 immunoassay kit (R&D, USA).
Collagen deposition (the extent of fibrosis) was visualized in liver/kidney sections with picrosirius red staining. In the TAA model, collagen quantification was performed using computerized Life Science morphometry system (BIOQUANT, USA) on a total of 36 images per animal at 100x magnification (four picrosirius red-stained slides per animal, with nine images taken randomly per slide).
In the TAA model, total protein was extracted from liver cells and expression levels of collagen type 1 and alpha-SMA were assessed by western blotting. Protein expression levels were normalized to the reference protein (glyceraldehyde-3-phosphate dehydrogenase [GAPDH] or calnexin).
In the hepatic-fibrosis models, RNA was extracted from liver tissues and purified, and 1 μg of total mRNA was reverse-transcribed into complementary DNA. Expression levels were determined by quantitative polymerase chain reaction (PCR) (iQ™ SYBR® Green Supermix [Bio-Rad Laboratories, USA] on the LightCycler® 480 Real-Time PCR System [Roche, Switzerland]) in the TAA model at Week 8 (early intervention and established fibrosis) and Week 12 (cirrhosis reversal), and by real-time PCR (PCR Dice® and SYBR® Premix Ex Taq™ [Takara Bio Inc., Japan]) at Week 9 in the NASH model.
Relative mRNA expression levels were normalized to the following reference genes: TAA model, GAPDH; NASH model, 36B4 (gene symbol: Rplp0); UUO model, hypoxanthine phosphoribosyltransferase.
Data are presented as ±standard error of the mean (SEM) in the TAA model. Statistical significance was determined by the two-tailed Student’s t test.

[4] = test system: APAP-induced liver injury; conditions: cited from earlier work
[5] = CVC100 PO BID, UUO surgery, group terminated due to poor clinical condition
[6] = acute APAP-induced liver injury

CCCCOCCOc1ccc(-c2ccc3c(c2)/C=C(/C(=O)Nc2ccc([S@@+]([O-])Cc4cncn4CCC)cc2)CCCN3CC(C)C)cc1 [CVC, cenicriviroc mesylate]
Decrease in body weight vs UUO control ([1]; CVC20, Day 5, p < 0.05): 5%
Animals died prior to end of study [1, 5]: 6/9
Animals euthanized prior to end of study [1, 5]: 3/9
Contralateral kidney weight ([1]; CVC 7 mg/kg/day): 221.0 ± 10.1 mg
Final body weight ([1]; CVC 7 mg/kg/day): 26.3 ± 0.5 g
Obstructed kidney weight ([1]; CVC 7 mg/kg/day): 232.0 ± 11.9 mg
Contralateral kidney weight ([1]; CVC 20 mg/kg/day): 202.4 ± 6.1 mg
Final body weight ([1]; CVC 20 mg/kg/day): 25.7 ± 0.4 g
Obstructed kidney weight ([1]; CVC 20 mg/kg/day): 217.0 ± 6.7 mg
Average fold change in migrating cells (±SD) compared to untreated and unstimulated cells ([2]; CCL2-stimulated (1 nM) cells treated with CVC 1 μM): 0.8±0.2 fold
Average fold change in migrating cells (±SD) compared to untreated and unstimulated cells ([2]; unstimulated cells treated with CVC 1 μM): 0.7±0.4 fold
mRNA expression of the fibrosis markers assessed, CVC vs vehicle control ([3]; TAA model): no significant changes
ALT levels, CVC-treated vs vehicle-control groups ([3]; TAA model, all groups): no significant differences
Reductions in collagen type 1 and alpha-SMA protein expression ([3]; advanced disease cirrhosis group): No reductions
Histologic differences between groups, H&E-stained liver sections ([3]; all TAA groups): No histologic differences
Reduction in collagen deposition ([3]; cirrhosis-reversal group, CVC treatment started at Week 8 (Weeks 8-12)): No significant reduction
Reduction in liver collagen deposition vs vehicle control ([3]; early intervention (Weeks 0-8), CVC30 QD PO): 48.5%
Reduction in liver collagen deposition vs vehicle control ([3]; early intervention (Weeks 0-8), CVC100 QD PO): 37.5%
AST levels vs vehicle control ([3]; early intervention group, CVC30, p < 0.05): significantly decreased
Reduction in protein expression of alpha-SMA vs vehicle control ([3]; early intervention, CVC30): 17%
Reduction in protein expression of collagen type 1 vs vehicle control ([3]; early intervention, CVC30): 29%
Reduction in protein expression of alpha-SMA vs vehicle control ([3]; early intervention, CVC100): 22%
Reduction in protein expression of collagen type 1 vs vehicle control ([3]; early intervention, CVC100): 12%
Reduction in liver collagen deposition vs vehicle control ([3]; established fibrosis (Weeks 4-8), CVC30 QD PO): 35.7%
Significant antifibrotic effect (collagen deposition) observed ([3]; established fibrosis (Weeks 4-8), CVC100 QD PO): not
Reduction in protein expression of alpha-SMA vs vehicle control ([3]; established fibrosis, CVC30): 14%
Reduction in protein expression of collagen type 1 vs vehicle control ([3]; established fibrosis, CVC30): 30%
Infiltration of Ly6Chi monocyte-derived macrophages into the liver ([4]; APAP model, preliminary data): significantly decreased
ALT levels relative to vehicle control [4, 6]: significant reduction
Necrotic area relative to vehicle control [4, 6]: significant reduction
